One assay concerns the target T1, recombinant mouse furin (Mus musculus, UniProt P23188).
T1 construct: truncated N-terminally to the transmembrane domain at His^711 using PCR; myc (C, cleaved yes); hexa-His (C, cleaved yes); made in house; host or cells: DG44 CHO cells, conditioned medium
The experiment in a line: Furin enzyme assay, hydrolysis of pERTKR-MCA at pH 7.0. Type of assay: biochemical. The text has this:
Recombinant convertase preparation. The mouse furin clone was a kind gift from K. Nakayama (Fukuoka University School of Medicine, Fukuoka, Japan). The mouse furin cDNA was truncated N-terminally to the transmembrane domain at His^711 using PCR. This PCR product was then subcloned into pcDNA3.1 (−) myc-His (Invitrogen) at the Nhe1 and Xba1 restriction sites. Dihydrofolate-reductase-negative DG44 Chinese Hamster Ovary (CHO) cells (L. Chasin, Columbia University, New York, N.Y.) were transfected using Lipofectin (Life Technologies), and colonies were selected at 37° C. in 5% CO2 in α-MEM (lacking nucleosides) containing 10% well-dialyzed fetal bovine serum (Life Technologies). Conditioned media from colonies were screened using an enzyme assay (see below), and a high-expressing clone was selected. Overexpression of furin was achieved by increasing the methotrexate concentration from 5 nM to 50 μM in five- to ten-fold steps as described in I. Lindberg et al., Methods Neurosci., vol. 23, pp. 94-108 (1995). The amplified lines were tested for increased furin expression by enzyme assay. Once the 50 μM methotrexate level had been reached, cells were split at ratios of 1:6 twice a week. 100 mL of conditioned media (OptiMEM, Life Technologies) containing 100 μg/mL aprotinin (Miles Laboratories, Kankakee, Ill.) was collected from confluent roller bottles every 24 h. The medium was then centrifuged at low speed to remove cells, and the supernatant was stored at −80° C. until use.
Purification of furin: Conditioned medium was thawed, pooled, and diluted 1:3.5 with buffer A (20 mM HEPES, 0.1% Brij 35, 5 mM CaCl2, pH 7.4), and pumped at 40 mL/min through a Sartorius D100 anion exchange membrane. The membrane was washed with 40 mL of buffer A, followed by 40 mL of buffer A containing 50 mM NaCl, and finally by 40 mL of buffer A containing 200 mM NaCl. The fraction eluting with 200 mM NaCl was diluted 1:4 with buffer A and applied to a 1 mL Pharmacia Mono Q HR5/5 anion exchange column at a flow rate of 1 mL/min. Following a 10 mL wash with buffer A, furin was eluted by a linear increase of 0 to 500 mM NaCl in buffer A over 30 mL; and 2 mL fractions were collected. Fractions containing peak activity were pooled, and 200 μL aliquots were subjected to gel permeation chromatography using a Pharmacia Superose 12 column at a flow rate of 0.5 mL/min of buffer A containing 200 mM NaCl. Fractions were assayed for activity as described below; protein content was determined using the Bradford method. All purification steps were performed at 4° C.
(§1) Enzyme Assays and Hexapeptide Library Screening. Enzyme assays for PC1 and PC2 were performed at pH 5.0 using pERTKR-MCA (Peptides International Inc., Louisville, Ky.) as described in E. Apletalina et al., J. Biol. Chem., vol. 273, pp. 26589-26595 (1998). The assay for furin was performed using the same substrate at pH 7.0 in 100 mM HEPES, 5 mM CaCl2, 0.1% Brij 35. All assays were performed at 37° C. in a 96 well fluorometer (Labsystems) at an excitation wavelength of 380 nm with emission monitored at a wavelength of 460 nm. The total volume was 50 μL. Unless otherwise stated, the final substrate concentration for all assays was 200 μM. When used in a particular experiment, the inhibitory peptides were pre-incubated with enzyme for 30 min at room temperature prior to addition of substrate. All assays were performed in duplicate or triplicate.

The target in assay [1] is T2, PC1 (Homo sapiens, UniProt P29120).
T2 sequence (P29120 111-753): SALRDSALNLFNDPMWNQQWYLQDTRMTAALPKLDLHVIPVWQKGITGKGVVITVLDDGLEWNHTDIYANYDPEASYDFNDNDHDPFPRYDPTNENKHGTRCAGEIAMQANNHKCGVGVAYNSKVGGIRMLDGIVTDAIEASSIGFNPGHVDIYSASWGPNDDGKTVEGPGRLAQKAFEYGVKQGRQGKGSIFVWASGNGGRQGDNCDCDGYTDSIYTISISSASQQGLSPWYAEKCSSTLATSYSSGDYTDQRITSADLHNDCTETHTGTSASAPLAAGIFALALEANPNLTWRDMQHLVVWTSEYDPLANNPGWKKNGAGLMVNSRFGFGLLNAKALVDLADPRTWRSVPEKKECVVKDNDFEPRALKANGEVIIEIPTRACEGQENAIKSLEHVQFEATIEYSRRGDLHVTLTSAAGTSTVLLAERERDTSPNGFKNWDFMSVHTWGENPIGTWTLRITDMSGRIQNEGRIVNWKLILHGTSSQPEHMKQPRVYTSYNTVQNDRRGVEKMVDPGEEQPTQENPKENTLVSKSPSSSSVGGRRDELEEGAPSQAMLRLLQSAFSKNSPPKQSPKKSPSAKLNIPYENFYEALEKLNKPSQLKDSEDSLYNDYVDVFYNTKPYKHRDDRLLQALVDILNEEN
To be noted: literature; cited from earlier work.

Another assay deals with T3, PC2 (Mus musculus, UniProt P21661).
T3 sequence (P21661 109-637): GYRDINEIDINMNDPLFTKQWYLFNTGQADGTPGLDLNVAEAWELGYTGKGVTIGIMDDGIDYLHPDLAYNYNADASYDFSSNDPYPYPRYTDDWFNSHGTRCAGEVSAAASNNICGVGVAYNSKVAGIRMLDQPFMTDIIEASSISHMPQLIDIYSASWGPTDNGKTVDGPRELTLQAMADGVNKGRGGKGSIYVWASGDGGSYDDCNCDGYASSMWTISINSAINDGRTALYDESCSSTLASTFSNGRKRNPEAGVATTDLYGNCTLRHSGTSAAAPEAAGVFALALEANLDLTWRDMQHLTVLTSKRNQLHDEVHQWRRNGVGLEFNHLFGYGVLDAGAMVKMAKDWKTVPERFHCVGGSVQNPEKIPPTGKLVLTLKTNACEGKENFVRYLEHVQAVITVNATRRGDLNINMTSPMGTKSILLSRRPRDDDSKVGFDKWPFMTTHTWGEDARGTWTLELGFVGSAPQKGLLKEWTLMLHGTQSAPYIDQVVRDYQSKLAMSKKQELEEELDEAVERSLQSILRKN
Nature of the assay: PC2 enzyme assay, hydrolysis of pERTKR-MCA at pH 5.0. Type of assay: biochemical. More on the design: made in house. As for the experimental part:
(§2) The proprotein convertases PC1 and PC2 were prepared by ion exchange chromatography as described in G. Frenette et al., Biochim. Biophys. Acta., vol. 1334, pp. 109-115 (1997).
as §1

The target of another assay is T4, PACE4 (Rattus norvegicus, UniProt Q63415).
T4 construct: made in house; host or cells: stably transfected hEK-293 cells (gift of R. E. Mains), conditioned medium
T4 sequence (Q63415 133-937): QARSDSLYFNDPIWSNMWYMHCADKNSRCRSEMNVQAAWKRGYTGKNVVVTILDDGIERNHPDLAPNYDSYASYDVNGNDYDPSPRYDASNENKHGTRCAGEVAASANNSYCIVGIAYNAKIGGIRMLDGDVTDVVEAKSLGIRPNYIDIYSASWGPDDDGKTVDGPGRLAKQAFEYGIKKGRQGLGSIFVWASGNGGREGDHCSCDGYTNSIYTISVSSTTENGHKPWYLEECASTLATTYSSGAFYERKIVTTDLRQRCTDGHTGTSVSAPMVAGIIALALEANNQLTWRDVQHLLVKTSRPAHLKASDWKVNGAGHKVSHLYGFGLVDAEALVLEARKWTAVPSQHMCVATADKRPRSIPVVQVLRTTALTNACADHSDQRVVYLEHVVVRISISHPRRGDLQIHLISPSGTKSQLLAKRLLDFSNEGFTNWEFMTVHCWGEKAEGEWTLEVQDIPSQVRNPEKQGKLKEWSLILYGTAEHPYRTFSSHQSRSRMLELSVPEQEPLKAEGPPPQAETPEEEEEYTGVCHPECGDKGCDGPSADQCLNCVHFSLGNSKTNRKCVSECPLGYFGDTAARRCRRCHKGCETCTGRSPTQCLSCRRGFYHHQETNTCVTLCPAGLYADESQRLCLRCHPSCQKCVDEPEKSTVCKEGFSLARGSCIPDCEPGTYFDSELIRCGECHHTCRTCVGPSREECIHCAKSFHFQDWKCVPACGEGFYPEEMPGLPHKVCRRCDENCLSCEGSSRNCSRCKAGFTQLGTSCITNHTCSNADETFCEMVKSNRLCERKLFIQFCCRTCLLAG
The experiment in a line: PACE4 enzyme assay, hydrolysis of pERTKR-MCA. Type of assay: biochemical. As for the experimental part:
The proprotein convertase PACE4 was partially purified from an overnight-conditioned medium of stably transfected hEK-293 human embryonic kidney cells (a generous gift of R. E. Mains, Johns Hopkins University School of Medicine, Baltimore, Md.). Briefly, 100 mL of conditioned medium (OptiMEM containing 100 μg/mL aprotinin) was loaded onto an Econo-Pac Q (Bio-Rad) column at 4 mL/min, washed with 10 mL of buffer A, and then eluted with a linear gradient of buffer A containing 500 mM NaCl over 50 mL. The active fractions were then diluted 1:4 with buffer A prior to loading onto a Mono Q column (Pharmacia) at 1 mL/min. The PACE4 was eluted with a linear gradient of buffer A containing 500 mM NaCl over 10 mL. The resulting active fractions were then pooled and stored at −80° C. until use.
as §1

In assay [2] the target is T5, PC1 (Mus musculus, UniProt P63239).
T5 construct: made in house
T5 sequence (P63239 111-753): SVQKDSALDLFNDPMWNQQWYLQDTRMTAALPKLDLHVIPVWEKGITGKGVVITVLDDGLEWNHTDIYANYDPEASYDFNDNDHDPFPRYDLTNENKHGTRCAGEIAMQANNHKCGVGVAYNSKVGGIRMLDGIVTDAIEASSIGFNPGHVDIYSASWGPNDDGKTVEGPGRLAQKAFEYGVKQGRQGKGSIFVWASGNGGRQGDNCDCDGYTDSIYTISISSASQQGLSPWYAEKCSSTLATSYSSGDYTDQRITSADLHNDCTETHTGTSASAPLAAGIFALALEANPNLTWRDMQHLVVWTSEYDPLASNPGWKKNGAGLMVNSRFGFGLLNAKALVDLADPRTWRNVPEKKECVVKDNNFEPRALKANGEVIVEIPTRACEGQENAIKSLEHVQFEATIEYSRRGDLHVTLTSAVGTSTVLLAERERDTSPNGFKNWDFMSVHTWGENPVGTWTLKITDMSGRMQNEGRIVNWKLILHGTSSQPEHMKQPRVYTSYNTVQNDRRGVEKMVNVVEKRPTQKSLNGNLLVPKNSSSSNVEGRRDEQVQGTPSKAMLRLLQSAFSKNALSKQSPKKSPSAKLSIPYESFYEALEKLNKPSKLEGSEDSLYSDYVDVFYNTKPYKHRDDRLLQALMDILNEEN
Nature of the assay: biochemical. In kind it is biochemical. As to the method: as §2, §1

Another assay has as its target furin (Homo sapiens, UniProt P09958). As to conditions: literature, cited from earlier work.

Residues, ends and D or L forms follow the SMILES beside them. *: point of attachment. CH2Cl = ClC*

By Ki is commonly meant the dissociation constant of the complex between target and ligand, obtained from inhibition or displacement.

Chain of furin (P09958 108-794): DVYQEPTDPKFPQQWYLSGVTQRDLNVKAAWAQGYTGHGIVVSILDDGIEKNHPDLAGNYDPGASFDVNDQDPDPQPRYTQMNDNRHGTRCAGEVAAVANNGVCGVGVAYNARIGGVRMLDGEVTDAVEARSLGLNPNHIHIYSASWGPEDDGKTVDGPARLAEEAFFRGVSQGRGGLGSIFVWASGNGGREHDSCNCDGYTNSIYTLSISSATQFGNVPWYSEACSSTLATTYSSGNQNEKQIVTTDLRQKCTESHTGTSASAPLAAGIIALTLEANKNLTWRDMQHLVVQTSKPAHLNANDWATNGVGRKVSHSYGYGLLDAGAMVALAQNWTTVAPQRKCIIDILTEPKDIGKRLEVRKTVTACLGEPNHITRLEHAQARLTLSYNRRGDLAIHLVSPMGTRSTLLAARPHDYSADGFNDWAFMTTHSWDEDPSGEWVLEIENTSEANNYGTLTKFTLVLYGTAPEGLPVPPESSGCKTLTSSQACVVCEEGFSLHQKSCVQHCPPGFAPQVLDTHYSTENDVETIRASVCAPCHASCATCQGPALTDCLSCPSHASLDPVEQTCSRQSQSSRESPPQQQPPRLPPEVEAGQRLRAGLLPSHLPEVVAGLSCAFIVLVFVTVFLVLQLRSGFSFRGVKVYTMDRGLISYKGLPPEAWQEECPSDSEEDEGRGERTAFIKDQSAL
T1 sequence (P23188 108-714 limits assumed): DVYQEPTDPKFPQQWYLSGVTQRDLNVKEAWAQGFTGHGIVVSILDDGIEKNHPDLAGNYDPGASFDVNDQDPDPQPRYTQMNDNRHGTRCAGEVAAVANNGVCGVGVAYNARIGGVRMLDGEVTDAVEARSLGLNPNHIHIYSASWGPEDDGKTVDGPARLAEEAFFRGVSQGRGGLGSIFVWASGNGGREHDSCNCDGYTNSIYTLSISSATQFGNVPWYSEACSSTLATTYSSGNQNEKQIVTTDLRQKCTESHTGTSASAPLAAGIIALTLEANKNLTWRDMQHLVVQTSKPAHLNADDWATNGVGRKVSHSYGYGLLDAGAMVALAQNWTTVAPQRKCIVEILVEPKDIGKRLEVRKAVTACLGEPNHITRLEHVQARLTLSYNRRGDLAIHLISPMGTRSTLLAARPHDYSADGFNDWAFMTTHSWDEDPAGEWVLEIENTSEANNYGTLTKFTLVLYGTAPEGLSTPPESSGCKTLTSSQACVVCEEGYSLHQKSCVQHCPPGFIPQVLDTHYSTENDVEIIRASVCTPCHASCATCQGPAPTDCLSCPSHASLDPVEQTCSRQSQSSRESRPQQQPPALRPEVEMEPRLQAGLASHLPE

Take `CC(=O)N[C@@H](CC(C)C)C(=O)N[C@@H](CC(C)C)C(=O)N[C@@H](CCCNC(=N)N)C(=O)N[C@H](C(=O)N[C@@H](CCCCN)C(=O)N[C@@H](CCCNC(=N)N)C(N)=O)C(C)C` [Ac-LLRVKR-NH2]: the inhibition constant Ki on recombinant mouse furin was determined as 3400 ± 100 nM; at PC2, 1000 ± 80 nM. Also, the “Ki / inhibition of PC1, in words” value on PC1 [1] was “nanomolar inhibitor”.

With `N=C(N)NCCC[C@H](NC(=O)[C@H](CCCNC(=N)N)NC(=O)[C@H](CCCNC(=N)N)NC(=O)[C@H](CCCNC(=N)N)NC(=O)[C@H](CCCNC(=N)N)NC(=O)[C@H](CCCNC(=N)N)NC(=O)[C@H](CCCNC(=N)N)NC(=O)[C@@H](N)CCCNC(=N)N)C(=O)O` [Octa-L-arginine], the inhibition constant Ki at PACE4 came to 150 ± 60 nM; at PC1 [2], 5100 ± 2000 nM.

For the compound `N=C(N)NCCC[C@H](NC(=O)[C@H](CCCNC(=N)N)NC(=O)[C@H](CCCNC(=N)N)NC(=O)[C@@H](N)CCCNC(=N)N)C(=O)O` [Tetra-L-arginine] (H-RRRR-OH), the inhibitory constant (Ki) on PACE4 and on PC1 [2] was more than 200000 nM each time. Further, on PACE4 (mM concentrations), the “inhibition of PACE4” value is given as “not found to inhibit even at mM concentrations”. For the same compound, the “inhibition of PC1” value on PC1 [2] (μM concentrations) was “not inhibited”.

Turning to “Ac-YEKERSKR-CH2Cl (SMILES CC(=O)N[C@@H](Cc1ccc(O)cc1)C(=O)N[C@@H](CCC(=O)O)C(=O)N[C@@H](CCCCN)C(=O)N[C@@H](CCC(=O)O)C(=O)N[C@@H](CCCNC(=N)N)C(=O)N[C@@H](CO)C(=O)N[C@@H](CCCCN)C(=O)N[C@@H](CCCNC(=N)N)C(=O)CCl) [reference compound]”, the “Ki against furin, in words” value with furin is given as “low nM”. The “Ki / inhibition of PC1, in words” value with PC1 [1] is reported as “low nM”.

With H-RRRRR-OH [Penta-L-arginine], the Ki on PACE4 worked out at 980 ± 120 nM; at PC1 [2], 14000 ± 6100 nM.

On to decanoyl-RVKR-CH2-AVG-NH2, for which the Ki on furin (read-out: Ki against furin) is 3.4 nM.

With “α1-PDX: α1-antitrypsin variant with reactive site loop bioengineered to contain a minimal furin consensus sequence [reference compound]”, the inhibition of furin result was “strongly inhibited” with recombinant mouse furin (nanomolar α1-PDX concentrations, validation of enzyme preparation) and “sub-nanomolar range” in the assay with furin.

These data come from patent US7569547B2, “Inhibiting furin with polybasic peptides” (Board of Supervisors of Louisiana State University and …, priority 2001, dated 2009).
